In assay [1] the test system is HCV genotype 1b (Con1) replicon in HUH-7 cells. Description: HCV replicon luciferase reporter assay, genotype 1b. The following applies: Hepatitis C virus, Huh-7, 72 h, HCV genotype 1b replicon luciferase assay, 3 days incubation, range class, read-out: LE_1b (EC50, range). Type of assay: cell-based. An outline of the steps: (§1)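 Replicon inhibition for both genotypes was measured as Renilla luciferase signal (EnduRen, 7.5 μM final, 2 h) after 3-day, 37° C exposure of replicon-bearing HUH-7 cells in 4% FCS DMEM, 0.5% DMSO. The 1b construct carries S1179I; the 1a H77 construct carries P1496L and S2204I. Twenty-point, 3-fold dilutions were fitted four-parametrically for EC50, and CC50 was taken from multiplexed Cell Titer-Blue.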

Assay [2] deals with HCV genotype 1a (H77 strain) replicon in HUH-7 cells. Description: HCV replicon luciferase reporter assay, genotype 1a. The following applies: Hepatitis C virus, Huh-7, 72 h, HCV genotype 1a replicon luciferase assay, 3 days incubation, range class, read-out: LE_1a (EC50, range). The class given is cell-based. In a few lines: as §1
A general note: Replicon systems follow genome replication, usually without infectious particles.

One may read the EC50 as the concentration giving half of the maximal effect. Regarding `CCN(C)c1cc2cc(OC)ccc2c(O[C@@H]2C[C@H]3C(=O)N[C@]4(C(=O)NS(=O)(=O)C5(CF)CC5)C[C@H]4/C=C\CC[C@@H](C)C[C@@H](C)[C@H](NC(=O)OC(C)(C)C(F)(F)F)C(=O)N3C2)n1` [Compound 1137, 1,1,1-trifluoro-2-methylpropan-2-yl((2R,6S,7R,9R,13aS,14aR,16aS,Z)-2-((3-(ethyl(methyl)amino)-6-methoxyisoquinolin-1-yl)oxy)-14a-(((1-(fluoromethyl)cyclopropyl)sulfonyl)carbamoyl)-7,9-dimethyl-5,16-dioxo-1,2,3,5,6,7,8,9,10,11,13a,14,14a,15,16,16a-hexadecahydrocyclopropa[e]pyrrolo[1,2-a][1,4]diazacyclopentadecin-6-yl)carbamate], the values for the EC50 in assay [1] and in assay [2] were less than 5.46 nM and 4.82 to 103 nM, respectively.
On the same counts, the results for `CCN(C)c1cc2cc(OC)ccc2c(O[C@@H]2C[C@H]3C(=O)N[C@]4(C(=O)NS(=O)(=O)C5(CF)CC5)C[C@H]4/C=C\CC[C@H](C)C[C@@H](C)[C@H](NC(=O)OC(C)(C)C(C)(F)F)C(=O)N3C2)n1` [Compound 1138, 3,3-difluoro-2-methylbutan-2-yl((2R,6S,7R,9S,13aS,14aR,16aS,Z)-2-((3-(ethyl(methyl)amino)-6-methoxyisoquinolin-1-yl)oxy)-14a-(((1-(fluoromethyl)cyclopropyl)sulfonyl)carbamoyl)-7,9-dimethyl-5,16-dioxo-1,2,3,5,6,7,8,9,10,11,13a,14,14a,15,16,16a-hexadecahydrocyclopropa[e]pyrrolo[1,2-a][1,4]diazacyclopentadecin-6-yl)carbamate] are greater than 87.4 nM and greater than 87.4 nM.
On the same counts, the results for `CCN(C)c1cc2cc(OC)ccc2c(O[C@@H]2C[C@H]3C(=O)N[C@]4(C(=O)NS(=O)(=O)C5(CF)CC5)C[C@H]4/C=C\CC[C@@H](C)C[C@@H](C)[C@H](NC(=O)OC(C)(C)C(C)(F)F)C(=O)N3C2)n1` [Compound 1139, 3,3-difluoro-2-methylbutan-2-yl((2R,6S,7R,9R,13aS,14aR,16aS,Z)-2-((3-(ethyl(methyl)amino)-6-methoxyisoquinolin-1-yl)oxy)-14a-(((1-(fluoromethyl)cyclopropyl)sulfonyl)carbamoyl)-7,9-dimethyl-5,16-dioxo-1,2,3,5,6,7,8,9,10,11,13a,14,14a,15,16,16a-hexadecahydrocyclopropa[e]pyrrolo[1,2-a][1,4]diazacyclopentadecin-6-yl)carbamate] are 4.82 to 103 nM and 4.82 to 103 nM.
On the same counts, the results for `COc1ccc2c(O[C@@H]3C[C@H]4C(=O)N[C@]5(C(=O)NS(=O)(=O)C6(C)CC6)C[C@H]5/C=C\CC[C@H](C)C[C@@H](C)[C@H](NC(=O)OC5(C(F)(F)F)COC5)C(=O)N4C3)nc(OC)cc2c1` [Compound 1140, 3-(trifluoromethyl)oxetan-3-yl ((2R,6S,7R,9S,13aS,14aR,16aS,Z)-2-((3,6-dimethoxyisoquinolin-1-yl)oxy)-7,9-dimethyl-14a-(((1-methylcyclopropyl)sulfonyl)carbamoyl)-5,16-dioxo-1,2,3,5,6,7,8,9,10,11,13a,14,14a,15,16,16a-hexadecahydrocyclopropa[e]pyrrolo[1,2-a][1,4]diazacyclopentadecin-6-yl)carbamate] are less than 5.46 nM and less than 5.46 nM.
For `COc1ccc2c(O[C@@H]3C[C@H]4C(=O)N[C@]5(C(=O)NS(=O)(=O)C6(C)CC6)C[C@H]5/C=C\CC[C@@H](C)C[C@@H](C)[C@H](NC(=O)OC5(C(F)(F)F)COC5)C(=O)N4C3)nc(OC)cc2c1` [Compound 1141, 3-(trifluoromethyl)oxetan-3-yl ((2R,6S,7R,9R,13aS,14aR,16aS,Z)-2-((3,6-dimethoxyisoquinolin-1-yl)oxy)-7,9-dimethyl-14a-(((1-methylcyclopropyl)sulfonyl)carbamoyl)-5,16-dioxo-1,2,3,5,6,7,8,9,10,11,13a,14,14a,15,16,16a-hexadecahydrocyclopropa[e]pyrrolo[1,2-a][1,4]diazacyclopentadecin-6-yl)carbamate], the EC50 in assay [1] and in assay [2] was less than 5.46 nM throughout.
In the case of `COc1ccc2c(O[C@@H]3C[C@H]4C(=O)N[C@]5(C(=O)NS(=O)(=O)C6(CF)CC6)C[C@H]5/C=C\CC[C@@H](C)C[C@@H](C)[C@H](NC(=O)OC(C)(C)C(C)(F)F)C(=O)N4C3)nccc2c1` [Compound 1143, 3,3-difluoro-2-methylbutan-2-yl((2R,6S,7R,9R,13aS,14aR,16aS,Z)-14a-(((1-(fluoromethyl)cyclopropyl)sulfonyl)carbamoyl)-2-((6-methoxyisoquinolin-1-yl)oxy)-7,9-dimethyl-5,16-dioxo-1,2,3,5,6,7,8,9,10,11,13a,14,14a,15,16,16a-hexadecahydrocyclopropa[e]pyrrolo[1,2-a][1,4]diazacyclopentadecin-6-yl)carbamate], the 50% effective concentration (EC50) in assay [1] was less than 5.46 nM; in assay [2] it was 4.82 to 103 nM.
As to `COCCOc1cnc(O[C@@H]2C[C@H]3C(=O)N[C@]4(C(=O)NS(=O)(=O)C5(C)CC5)C[C@H]4/C=C\CC[C@H](C)C[C@@H](C)[C@H](NC(=O)OC(C)(C)C(F)(F)F)C(=O)N3C2)c2ccc(OC)cc12` [Compound 1144, 1,1,1-trifluoro-2-methylpropan-2-yl((2R,6S,7R,9S,13aS,14aR,16aS,Z)-2-((6-methoxy-4-(2-methoxyethoxyl)isoquinolin-1-yl)oxy)-7,9-dimethyl-14a-(((1-methylcyclopropyl)sulfonyl)carbamoyl)-5,16-dioxo-1,2,3,5,6,7,8,9,10,11,13a,14,14a,15,16,16a-hexadecahydrocyclopropa[e]pyrrolo[1,2-a][1,4]diazacyclopentadecin-6-yl)carbamate], the EC50 in assay [1] and in assay [2] was less than 5.46 nM in each case.
With `COCCOc1cnc(O[C@@H]2C[C@H]3C(=O)N[C@]4(C(=O)NS(=O)(=O)C5(C)CC5)C[C@H]4/C=C\CC[C@@H](C)C[C@@H](C)[C@H](NC(=O)OC(C)(C)C(F)(F)F)C(=O)N3C2)c2ccc(OC)cc12` [Compound 1145, 1,1,1-trifluoro-2-methylpropan-2-yl((2R,6S,7R,9R,13aS,14aR,16aS,Z)-2-((6-methoxy-4-(2-methoxyethoxyl)isoquinolin-1-yl)oxy)-7,9-dimethyl-14a-(((1-methylcyclopropyl)sulfonyl)carbamoyl)-5,16-dioxo-1,2,3,5,6,7,8,9,10,11,13a,14,14a,15,16,16a-hexadecahydrocyclopropa[e]pyrrolo[1,2-a][1,4]diazacyclopentadecin-6-yl)carbamate], the EC50 in assay [1] and in assay [2] was less than 5.46 nM in each case.
In the case of `COCCOc1cnc(O[C@@H]2C[C@H]3C(=O)N[C@]4(C(=O)NS(=O)(=O)C5CC5)C[C@H]4/C=C\CC[C@H](C)C[C@@H](C)[C@H](NC(=O)OC(C)(C)C(F)(F)F)C(=O)N3C2)c2ccc(OC)cc12` [Compound 1146, 1,1,1-trifluoro-2-methylpropan-2-yl((2R,6S,7R,9S,13aS,14aR,16aS,Z)-14a-((cyclopropylsulfonyl)carbamoyl)-2-((6-methoxy-4-(2-methoxyethoxyl)isoquinolin-1-yl)oxy)-7,9-dimethyl-5,16-dioxo-1,2,3,5,6,7,8,9,10,11,13a,14,14a,15,16,16a-hexadecahydrocyclopropa[e]pyrrolo[1,2-a][1,4]diazacyclopentadecin-6-yl)carbamate], the EC50 in assay [1] and in assay [2] was less than 5.46 nM in each case.
Turning to `COCCOc1cnc(O[C@@H]2C[C@H]3C(=O)N[C@]4(C(=O)NS(=O)(=O)C5CC5)C[C@H]4/C=C\CC[C@@H](C)C[C@@H](C)[C@H](NC(=O)OC(C)(C)C(F)(F)F)C(=O)N3C2)c2ccc(OC)cc12` [Compound 1147, 1,1,1-trifluoro-2-methylpropan-2-yl((2R,6S,7R,9R,13aS,14aR,16aS,Z)-14a-((cyclopropylsulfonyl)carbamoyl)-2-((6-methoxy-4-(2-methoxyethoxyl)isoquinolin-1-yl)oxy)-7,9-dimethyl-5,16-dioxo-1,2,3,5,6,7,8,9,10,11,13a,14,14a,15,16,16a-hexadecahydrocyclopropa[e]pyrrolo[1,2-a][1,4]diazacyclopentadecin-6-yl)carbamate], the EC50 in assay [1] and in assay [2] was less than 5.46 nM throughout.
`COCCOc1cnc(O[C@@H]2C[C@H]3C(=O)N[C@]4(C(=O)NS(=O)(=O)C5(C)CC5)C[C@H]4/C=C\CC[C@H](C)C[C@@H](C)[C@H](NC(=O)OC(C)(C)C(C)(F)F)C(=O)N3C2)c2ccc(OC)cc12` [Compound 1148, 3,3-difluoro-2-methylbutan-2-yl((2R,6S,7R,9S,13aS,14aR,16aS,Z)-2-((6-methoxy-4-(2-methoxyethoxyl)isoquinolin-1-yl)oxy)-7,9-dimethyl-14a-(((1-methylcyclopropyl)sulfonyl)carbamoyl)-5,16-dioxo-1,2,3,5,6,7,8,9,10,11,13a,14,14a,15,16,16a-hexadecahydrocyclopropa[e]pyrrolo[1,2-a][1,4]diazacyclopentadecin-6-yl)carbamate]: the EC50 in assay [1] and in assay [2] was less than 5.46 nM in each case.
Regarding `COCCOc1cnc(O[C@@H]2C[C@H]3C(=O)N[C@]4(C(=O)NS(=O)(=O)C5(C)CC5)C[C@H]4/C=C\CC[C@@H](C)C[C@@H](C)[C@H](NC(=O)OC(C)(C)C(C)(F)F)C(=O)N3C2)c2ccc(OC)cc12` [Compound 1149, 3,3-difluoro-2-methylbutan-2-yl((2R,6S,7R,9R,13aS,14aR,16aS,Z)-2-((6-methoxy-4-(2-methoxyethoxyl)isoquinolin-1-yl)oxy)-7,9-dimethyl-14a-(((1-methylcyclopropyl)sulfonyl)carbamoyl)-5,16-dioxo-1,2,3,5,6,7,8,9,10,11,13a,14,14a,15,16,16a-hexadecahydrocyclopropa[e]pyrrolo[1,2-a][1,4]diazacyclopentadecin-6-yl)carbamate], the EC50 in assay [1] and in assay [2] was less than 5.46 nM each time.

Source of the values: US9499550B2 (BRISTOL-MYERS SQUIBB COMPANY, priority 2012, dated 2016).
